{"source": "patent US20170007620A1", "about": "(priority 2015, published 2017)", "key": {"[1]": {"tested_on": "one carbon pool products (AMP, ADP, ATP)", "assay": "One carbon pool products (AMP, ADP, ATP) in lymphocytes during DHEA-mediated EGSS (FIG. 5)", "conditions": "DHEA 10 mg/kg daily per os 90 days ± reconstitution regimen"}, "ubiquinone": {"tested_on": "ubiquinone", "assay": "Ubiquinone concentrations in buffy coat samples of DHEA-treated neutered dogs (FIG. 3)", "format": "in vivo", "protocol": "(§1) FIG. 3. […] BH4 was assayed by the method of Niederwieser, A. et. al. (J Chromatogr. 1984 May 4; 290:237-46). For IPA quantitation, preliminary in vitro studies were performed in which DHEA-treated and control HT-29SF cells were exposed to [^3H]-mevalonic acid (saponified; data not shown). Total RNA was then isolated using the guanidinium thiocyanate method, hydrolyzed to free bases and isolated on an Aminex A9 column, with UV detection, as previously described (Nyce, J et. al., Proc Natl Acad Sci USA. 1993 Apr. 1; 90(7):2960-4). Increased incorporation of [^3H]-mevalonic acid into isopentenyladenosine peaks was interpreted as reduced pools of free unlabeled IPA into which the [^3H]-IPA equilibrated with high specific activity. (See Shultz and Nyce, Cancer Research 51(24):6563-7, 1992). This was borne out in in vivo experiments in neutered dogs treated with DHEA in which buffy coat lymphocytes were extracted and IPA quantitated with UV detection using the same HPLC procedure. […] Ubiquinone concentrations were quantitated from buffy coat samples by HPLC via the method of Abe, K. et. al., (J Nutr Sci Vitaminol (Tokyo). 1978; 24(6):555-67). For ease of presentation, pretreatment values for all 3 determinations (BH4, IPA and ubiquinone) were given a value of 1, with treatment values presented as their respective fraction thereof. […]"}, "BH4": {"tested_on": "BH4", "parameters": "species or system dogs", "conditions": "dog, in vivo"}, "NO": {"tested_on": "NO", "assay": "Nitric oxide depletion and replenishment during DHEA-mediated EGSS", "format": "in vivo", "conditions": "animals undergoing DHEA-mediated EGSS"}, "phenylalanine": {"tested_on": "phenylalanine", "assay": "Plasma phenylalanine in DHEA-treated neutered dogs (FIG. 10)", "conditions": "DHEA-treated neutered dogs ± reconstitution protocol", "experimental": "Before treatment, 10-15 ml blood samples were taken from male and female neutered dogs, and plasma was collected by low speed centrifugation by the standard method. The method of Neckers, L M et. al. (Clin Chem 27(1):146-8, 1981) was used to quantitate plasma phenylalanine concentrations, with fluorometric detection (280 nm excitation, 330 nm emission), and a 10 ul injection volume."}, "[2]": {"tested_on": "neutered mixed breed dogs", "assay": "Physical symptoms / side effects of DHEA-mediated EGSS with and without reconstitution protocol (Table 1)", "text": "Physical symptoms associated with DHEA-mediated EGSS-induced Nitric Oxide (NO) depletion."}, "estrogen": {"tested_on": "estrogen", "assay": "Fecal estrogen in neutered female dogs before and after DHEA-mediated EGSS (FIG. 2)", "conditions": "feces, DHEA 10 mg/kg p.o.", "experimental": "Analyses were made in serum isolated from 4 intact male and 4 neutered male dogs of mixed breed, and in 3 intact female and 4 neutered female dogs of mixed breed. All were between 12 months and 24 months of age, and between 10 and 25 kg. […] For female dogs, estrogen was measured in anestrous for intact dogs. For both intact and neutered female dogs, the feces were collected over a period of 30 days, and thereafter the estrogens were extracted and quantitated using the procedure of Hofmann and Mostl (J Reprod Fertil Suppl 57:67-70, 2001). Results are reported as mean±SEM.\nComparison of testosterone and estrogen in neutered male and female dogs, respectively, before and after DHEA-mediated EGSS. The same neutered dogs from FIG. 1 were utilized. The same methodology was utilized as in FIG. 1. Dogs were exposed to escalating doses of DHEA until normal or near normal levels of testosterone or estradiol were achieved. […] Results are reported as the mean±SEM."}, "norepinephrine": {"tested_on": "norepinephrine", "assay": "Urinary free norepinephrine in neutered dogs undergoing DHEA-mediated EGSS (FIG. 9)", "format": "in vivo", "conditions": "24 hour urine, DHEA 10 mg/kg 90 days ± reconstitution regimen", "protocol": "FIG. 9. […] Urinary free norepinephrine was quantitated by the method of Mell, L D and Gustafson, A B (Clin Chem 23(3): 473-6, 1977), using a Waters HPLC system with a C18 reverse phase column and UV detector. 24 hour urine was collected from neutered male and female animals in amber glass containment vessels. To 100 ml of urine was added 1 ml of concentrated HCL as preservative. […] This treatment continued for 90 days, at which time further urine specimens were collected and assayed for norepinephrine. The data are reported as the mean±SEM. MNNor, norepinephrine levels as quantitated in neutered male dogs; FNNor, norepinephrine levels as quantitated in neutered female dogs."}, "IPA": {"tested_on": "IPA", "assay": "IPA / isopentenylated tRNA quantitation in buffy coat lymphocytes of DHEA-treated neutered dogs (FIG. 3)", "format": "in vivo", "protocol": "as §1"}, "serotonin": {"tested_on": "serotonin", "assay": "Serotonin in intestinal mucosa biopsies of DHEA-treated neutered dogs (FIG. 7)", "format": "in vivo", "conditions": "DHEA 10 mg/kg daily for 90 days ± supplementation", "experimental": "The procedure of D'Souza, L and Glueck, H (Thromb Haemost. 1977 Dec. 15; 38(4):990-1001) was used to quantitate serotonin in intestinal biopsies obtained from neutered male and female dogs. Ten mg of intestinal mucosa was analyzed for each animal. […] Results are presented as percentage of values in pretreatment dogs, mean±SEM. MNSer, serotonin levels as quantitated in neutered male dogs; FNSer, serotonin levels as quantitated in female neutered dogs."}, "statin-treated cells": {"tested_on": "statin-treated cells", "conditions": "cited from earlier work"}, "[3]": {"conditions": "animals undergoing DHEA-mediated EGSS"}}, "note": "Entries after “also recorded” stand apart in the source; their conditions may differ.", "data": [{"smiles": "C[C@]12CC[C@H](O)CC1=CC[C@@H]1[C@@H]2CC[C@]2(C)C(=O)CC[C@@H]12", "note": "[DHEA, Dehydroepiandrosterone]", "values": [{"measurement": "one carbon pool products (purines, pyrimidines, S-adenosylmethionine; AMP, ADP, ATP)", "setting": "[1]", "result": "profoundly depleted; also recorded: Depletion"}, {"measurement": "ubiquinone levels, continuous treatment", "setting": "ubiquinone; continuous DHEA at doses capable of inducing EGSS, with or without supplementation", "result": "decline"}, {"measurement": "ubiquinone levels, short term", "setting": "ubiquinone; short term DHEA exposure", "result": "increased"}, {"measurement": "BH4 level", "setting": "BH4", "result": "depleted"}, {"measurement": "NO level", "setting": "NO", "result": "depleted"}, {"measurement": "plasma phenylalanine levels", "setting": "phenylalanine", "result": "Increase"}, {"measurement": "motor incoordination", "setting": "[2]; [3]", "result": "sometimes occurs"}, {"measurement": "lower extremity neuropathy", "setting": "[2]; animals undergoing DHEA-mediated EGSS with or without supplementation", "result": "observed"}, {"measurement": "susceptibility to infections, particularly ear and eye", "setting": "[2]; dogs and cats, DHEA in amounts sufficient to induce EGSS", "result": "have been noted"}, {"measurement": "fluid retention", "setting": "[2]; dogs, DHEA in amounts sufficient to induce EGSS", "result": "has been observed"}, {"measurement": "side effects of DHEA-mediated EGSS", "setting": "[2]; doses required to induce EGSS in neutered animals", "result": "capable of causing many serious side effects; also recorded: auto-inflammatory-like disorder"}, {"measurement": "vascular effects", "setting": "[2]; during DHEA-mediated EGSS", "result": "induction of vasoconstriction"}, {"measurement": "estrogen level", "setting": "estrogen", "result": "increases"}, {"measurement": "urinary norepinephrine", "setting": "norepinephrine", "result": "Depletion"}, {"measurement": "IPA level", "setting": "IPA; exogenous DHEA in amounts sufficient to induce EGSS", "result": "becomes depleted"}, {"measurement": "total pools of isopentenylated tRNA", "setting": "IPA; neutered dogs treated with DHEA, buffy coat lymphocytes, HPLC UV", "result": "found to be depleted"}, {"measurement": "serotonin level", "setting": "serotonin", "result": "Depletion"}]}, {"smiles": "Nc1nc(=O)c2c([nH]1)NCC(CNc1ccc(C(=O)N[C@@H](CCC(=O)O)C(=O)O)cc1)N2C=O", "note": "(mixture of isomers) [folinic acid]", "values": [{"measurement": "one carbon pool products (purines, pyrimidines, S-adenosylmethionine; AMP, ADP, ATP)", "setting": "[1]", "result": "reconstitution"}]}, {"smiles": "N[C@@H](Cc1ccc(O)c(O)c1)C(=O)O", "note": "[L-DOPA]", "values": [{"measurement": "emesis", "setting": "[2]; dogs, alternative protocol with L-DOPA, pyridoxine, ascorbate, SAMe", "result": "emesis in some dogs"}]}, {"smiles": "O=[N+]([O-])[O-].[K+]", "note": "[potassium nitrate]", "values": [{"measurement": "NO level", "setting": "NO", "result": "can replenish NO"}, {"measurement": "symptoms associated with NO depletion", "setting": "[2]; [3]", "result": "eliminating the symptoms"}]}, {"smiles": "CC(C)=CCNc1ncnc2nc[nH]c12", "note": "[Isopentenyladenine]", "values": [{"measurement": "activity in restoring DNA synthesis relative to mevalonate", "setting": "statin-treated cells", "result": "approximately 100 fold"}]}]}
